The record followed here is ChEMBL document CHEMBL5465560, “Selectivity Literature for EUbOPEN Chemogenomic Library” (2024).

The target in assay [1] is T1, Dual specificity tyrosine-phosphorylation-regulated kinase 2 (Homo sapiens) (UniProt Q92630).
T1 sequence (whole entry): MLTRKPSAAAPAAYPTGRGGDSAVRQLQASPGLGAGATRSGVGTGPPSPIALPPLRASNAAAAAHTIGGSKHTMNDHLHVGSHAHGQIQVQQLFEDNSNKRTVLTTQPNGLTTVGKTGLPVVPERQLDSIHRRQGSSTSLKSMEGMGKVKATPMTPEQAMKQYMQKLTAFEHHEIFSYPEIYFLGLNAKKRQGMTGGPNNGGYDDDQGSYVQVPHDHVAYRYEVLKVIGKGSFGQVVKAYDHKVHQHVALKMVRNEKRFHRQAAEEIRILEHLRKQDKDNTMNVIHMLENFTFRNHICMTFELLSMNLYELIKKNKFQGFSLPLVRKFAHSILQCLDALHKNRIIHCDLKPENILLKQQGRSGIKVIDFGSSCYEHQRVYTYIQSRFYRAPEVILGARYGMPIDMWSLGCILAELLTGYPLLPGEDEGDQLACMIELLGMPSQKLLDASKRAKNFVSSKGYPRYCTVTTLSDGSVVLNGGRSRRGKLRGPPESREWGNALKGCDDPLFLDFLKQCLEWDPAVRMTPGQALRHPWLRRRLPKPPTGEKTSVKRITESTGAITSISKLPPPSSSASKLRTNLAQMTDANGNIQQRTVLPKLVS
Put plainly: Selectivity interaction (LanthaScreen Eu Kinase Binding Assay) EUB0001632a DYRK2. The following applies: at 10 µM.

In assay [2] the target is T2, Serine/threonine-protein kinase Chk1 (Homo sapiens) (UniProt O14757).
T2 sequence (whole entry): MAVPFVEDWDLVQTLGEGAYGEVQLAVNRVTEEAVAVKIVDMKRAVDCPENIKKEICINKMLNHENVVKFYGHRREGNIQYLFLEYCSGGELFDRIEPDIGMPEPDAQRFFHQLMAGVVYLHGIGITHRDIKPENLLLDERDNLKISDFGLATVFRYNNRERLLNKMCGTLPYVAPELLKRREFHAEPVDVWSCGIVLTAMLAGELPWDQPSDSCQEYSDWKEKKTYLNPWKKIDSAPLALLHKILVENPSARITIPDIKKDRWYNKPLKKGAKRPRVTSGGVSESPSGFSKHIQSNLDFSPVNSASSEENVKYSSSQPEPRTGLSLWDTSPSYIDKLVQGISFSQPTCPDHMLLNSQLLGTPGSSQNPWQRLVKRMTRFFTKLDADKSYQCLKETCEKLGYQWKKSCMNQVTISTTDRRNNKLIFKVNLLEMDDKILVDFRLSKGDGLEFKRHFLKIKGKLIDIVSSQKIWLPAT
Put plainly: Selectivity interaction (KinomeScan (DiscoverX)) EUB0000045b CHEK1.

In assay [3] the target is T3, TGF-beta receptor type-1 (Homo sapiens) (UniProt P36897).
T3 sequence (whole entry): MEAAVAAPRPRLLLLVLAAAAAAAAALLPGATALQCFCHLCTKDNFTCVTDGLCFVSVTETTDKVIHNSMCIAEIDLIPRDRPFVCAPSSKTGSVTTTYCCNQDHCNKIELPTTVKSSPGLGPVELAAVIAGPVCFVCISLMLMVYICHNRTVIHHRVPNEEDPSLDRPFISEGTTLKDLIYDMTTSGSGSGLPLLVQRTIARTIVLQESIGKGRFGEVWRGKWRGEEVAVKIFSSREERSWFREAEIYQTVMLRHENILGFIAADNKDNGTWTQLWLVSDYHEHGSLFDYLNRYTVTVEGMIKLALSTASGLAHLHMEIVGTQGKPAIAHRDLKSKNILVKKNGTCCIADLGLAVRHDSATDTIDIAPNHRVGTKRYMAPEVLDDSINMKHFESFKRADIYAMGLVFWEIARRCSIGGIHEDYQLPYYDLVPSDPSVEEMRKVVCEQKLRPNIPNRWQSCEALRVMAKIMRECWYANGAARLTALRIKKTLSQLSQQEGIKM
Put plainly: Selectivity interaction (KinomeScan (DiscoverX)) EUB0001049a TGFBR1. The settings on record: at 1 µM.

For assay [4], the target named is Calcium/calmodulin-dependent protein kinase kinase 1 (Homo sapiens) (UniProt Q8N5S9). Nature of the assay: Selectivity interaction (KinomeScan (DiscoverX)) EUB0000618a CAMKK1. The settings on record: at 10 µM.
Sequence of Calcium/calmodulin-dependent protein kinase kinase 1 (Homo sapiens) (Q8N5S9 whole entry, looked up): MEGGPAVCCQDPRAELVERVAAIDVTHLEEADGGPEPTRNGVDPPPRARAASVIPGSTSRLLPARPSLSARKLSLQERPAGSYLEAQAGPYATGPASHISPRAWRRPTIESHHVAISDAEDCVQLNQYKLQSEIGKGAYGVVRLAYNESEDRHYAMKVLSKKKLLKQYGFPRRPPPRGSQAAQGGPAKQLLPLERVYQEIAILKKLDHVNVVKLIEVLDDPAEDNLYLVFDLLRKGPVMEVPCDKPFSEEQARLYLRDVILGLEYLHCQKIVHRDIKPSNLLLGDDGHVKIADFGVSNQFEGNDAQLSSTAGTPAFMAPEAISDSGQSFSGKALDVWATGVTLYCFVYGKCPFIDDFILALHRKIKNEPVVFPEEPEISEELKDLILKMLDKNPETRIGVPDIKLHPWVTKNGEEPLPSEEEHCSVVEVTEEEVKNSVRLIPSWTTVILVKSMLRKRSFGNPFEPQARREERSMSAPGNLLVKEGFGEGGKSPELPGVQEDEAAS
The target of assay [5] is T4, Non-receptor tyrosine-protein kinase TNK1 (Homo sapiens) (UniProt Q13470).
T4 sequence (whole entry): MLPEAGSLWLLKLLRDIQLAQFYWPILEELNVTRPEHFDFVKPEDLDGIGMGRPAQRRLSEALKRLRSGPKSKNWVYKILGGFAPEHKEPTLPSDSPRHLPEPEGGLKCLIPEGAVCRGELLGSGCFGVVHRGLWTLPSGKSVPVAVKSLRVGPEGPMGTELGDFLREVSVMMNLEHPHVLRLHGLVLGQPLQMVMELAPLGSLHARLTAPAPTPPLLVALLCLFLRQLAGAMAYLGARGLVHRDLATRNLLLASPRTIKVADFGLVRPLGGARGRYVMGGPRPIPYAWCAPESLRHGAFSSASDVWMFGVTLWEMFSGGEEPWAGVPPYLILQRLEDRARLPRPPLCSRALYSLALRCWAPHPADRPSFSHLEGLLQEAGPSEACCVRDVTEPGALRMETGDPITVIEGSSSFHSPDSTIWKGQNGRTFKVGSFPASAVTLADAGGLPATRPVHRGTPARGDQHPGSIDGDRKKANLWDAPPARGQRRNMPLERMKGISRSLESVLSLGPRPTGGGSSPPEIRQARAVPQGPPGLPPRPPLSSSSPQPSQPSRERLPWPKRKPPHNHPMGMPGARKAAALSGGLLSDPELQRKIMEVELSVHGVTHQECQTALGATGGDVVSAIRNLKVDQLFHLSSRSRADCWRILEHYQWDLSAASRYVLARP
Nature of the assay: Selectivity interaction (KinomeScan (DiscoverX)) EUB0000229b TNK1. The settings on record: at 10 µM.

In the case of `Cn1cc(-n2cnc3c(NCc4nc5cc(Cl)c(Cl)cc5[nH]4)nc(N4CCOCC4)nc32)cn1`, the % of inhibition in assay [1] is -265%.

`C=CC(=O)Nc1cc(-n2c(=O)ccc3cnc4ccc(-c5ccc(NS(C)(=O)=O)cc5)cc4c32)ccc1C`: the figures for the % of control in assay [2] (at 1 µM) and in assay [2] (at 10 µM) were 100% and 79%, respectively.

`COc1cc(Nc2nc(C)cc(-c3cnn4nc(OC)ccc34)n2)cc(C(F)(F)F)c1`: the % of control in assay [3] came out at 100%.

For `O[C@H]1CC[C@H](Nc2ncc3nc(Nc4c(F)cc(F)cc4F)n([C@H]4CCOC4)c3n2)CC1`, the % of control in assay [4] was determined as 100%.

For the compound `COc1cc(N(C)c2ccnc3ccc(C(F)(F)F)cc23)cc(OC)c1OC`, in assay [5], the % binding stood at 63%.
